Reference: US9919053B2, “Cabazitaxel composition” (SUPRATEK PHARMA INC., priority 2012, dated 2018)
Converted amounts (≈) assume the structure as drawn. Read-outs that look alike come from different tables or passages of the source.

Tests used:
[1] = Stability of solution of cabazitaxel in aqueous SBECD (HPLC concentration over time); format: physicochemical; details: 23° C.
Procedure: A solution containing 2.02 mg/mL cabazitaxel in 20% aqueous SBECD was prepared by sequential dissolving SBECD in water, and cabazitaxel in the resulting solution, followed by filtration through a 0.22 μm filter. Portions of the solution was subsequently diluted with water to form three solutions having the cabazitaxel concentration listed in the Table below, respectively. The solutions were incubated at temperature 23° C. and at selected time points were analyzed using the HPLC. All solutions were stable.

[2] = Equilibrium solubility of cabazitaxel in aqueous SBECD; format: physicochemical; details: aqueous SBECD solution, 23 °C, aqueous with cosolvent or surfactant or cyclodextrin, thermodynamic from solid, read-out: Cabazitaxel concentration (equilibrium solubility)
Procedure: Excess of cabazitael was mixed with aqueous SBECD solutions for 16 hours at 23° C. The resulting suspension was filtered through a 0.22 μm filter, and the clear filtrate solution was analyzed by HPLC.

CO[C@H]1C(=O)[C@]2(C)[C@@H](OC)C[C@H]3OC[C@@]3(OC(C)=O)[C@H]2[C@H](OC(=O)c2ccccc2)[C@]2(O)C[C@H](OC(=O)[C@H](O)[C@@H](NC(=O)OC(C)(C)C)c3ccccc3)C(C)=C1C2(C)C [cabazitaxel, (1S,2S,3R,4S,7R,9S,10S,12R,15S)-4-(Acetyloxy)-15-{[(2R,3S)-3-{[(tert-butoxy)carbonyl]amino}-2-hydroxy-3-phenylpropanoyl]oxy}-1-hydroxy-9,12-dimethoxy-10,14,17,17-tetramethyl-11-oxo-6-oxatetracyclo[11.3.1.^03,10.0^4,7]heptadec-13-ene-2-yl benzoate]
Cabazitaxel concentration ([1]; first dilution (0.098 mg/mL at 0 h) of 2.02 mg/mL in 20% SBECD, time 0 hours): 0.098 mg/mL | Cabazitaxel concentration ([1]; first dilution (0.098 mg/mL at 0 h), time 11 hours): 0.099 mg/mL | Cabazitaxel concentration ([1]; first dilution (0.098 mg/mL at 0 h), time 24.5 hours): 0.099 mg/mL | Cabazitaxel concentration ([1]; first dilution (0.098 mg/mL at 0 h), time 36 hours): 0.098 mg/mL | Cabazitaxel concentration ([1]; first dilution (0.098 mg/mL at 0 h), time 45 hours): 0.098 mg/mL | Cabazitaxel concentration ([1]; first dilution (0.098 mg/mL at 0 h), time 100 hours): 0.097 mg/mL | Cabazitaxel concentration ([1]; first dilution (0.098 mg/mL at 0 h), time 120 hours): 0.097 mg/mL | Cabazitaxel concentration ([1]; second dilution (0.268 mg/mL at 0 h) of 2.02 mg/mL in 20% SBECD, time 0 hours): 0.268 mg/mL | Cabazitaxel concentration ([1]; second dilution (0.268 mg/mL at 0 h), time 11 hours): 0.268 mg/mL | Cabazitaxel concentration ([1]; second dilution (0.268 mg/mL at 0 h), time 24.5 hours): 0.269 mg/mL | Cabazitaxel concentration ([1]; second dilution (0.268 mg/mL at 0 h), time 36 hours): 0.268 mg/mL | Cabazitaxel concentration ([1]; second dilution (0.268 mg/mL at 0 h), time 45 hours): 0.268 mg/mL | Cabazitaxel concentration ([1]; second dilution (0.268 mg/mL at 0 h), time 100 hours): 0.263 mg/mL | Cabazitaxel concentration ([1]; second dilution (0.268 mg/mL at 0 h), time 120 hours): 0.266 mg/mL | Cabazitaxel concentration ([1]; third dilution (0.510 mg/mL at 0 h) of 2.02 mg/mL in 20% SBECD, time 0 hours): 0.510 mg/mL | Cabazitaxel concentration ([1]; third dilution (0.510 mg/mL at 0 h), time 11 hours): 0.515 mg/mL | Cabazitaxel concentration ([1]; third dilution (0.510 mg/mL at 0 h), time 24.5 hours): 0.518 mg/mL | Cabazitaxel concentration ([1]; third dilution (0.510 mg/mL at 0 h), time 36 hours): 0.512 mg/mL | Cabazitaxel concentration ([1]; third dilution (0.510 mg/mL at 0 h), time 45 hours): 0.517 mg/mL | Cabazitaxel concentration ([1]; third dilution (0.510 mg/mL at 0 h), time 100 hours): 0.512 mg/mL | Cabazitaxel concentration ([1]; third dilution (0.510 mg/mL at 0 h), time 120 hours): 0.518 mg/mL | solubility thermodynamic at 16 h ([2]; aqueous SBECD 1%): 270 µg/mL (≈ 323 µM) | solubility thermodynamic at 16 h ([2]; aqueous SBECD 2%): 460 µg/mL (≈ 550 µM) | solubility thermodynamic at 16 h ([2]; aqueous SBECD 10%): 990 µg/mL (≈ 1180 µM) | solubility thermodynamic at 16 h ([2]; aqueous SBECD 20%): 2280 µg/mL (≈ 2730 µM) | solubility thermodynamic at 16 h ([2]; aqueous SBECD 40%): 4170 µg/mL (≈ 4990 µM)
